Reference: patent US6387885B1, “3′,3′-N-bis-desmethyl-3′-N-cycloalkyl erythromycin derivatives as LHRH antagonists” (Abbott Laboratories, priority 1998, dated 2002)

Assays:
[1] = target: T1, LHRH rat pituitary receptor (Rattus norvegicus, UniProt P30969); test: LHRH rat pituitary receptor binding (in vitro); details: method of Haviv et al. J. Med. Chem. 32: 2340-2344 (1989), read-out: pKI (receptor binding affinity; negative logarithm of the equilibrium dissociation constant) (converted)
T1 construct: from tissue; host or cells: rat pituitary
T1 sequence (P30969 1-327): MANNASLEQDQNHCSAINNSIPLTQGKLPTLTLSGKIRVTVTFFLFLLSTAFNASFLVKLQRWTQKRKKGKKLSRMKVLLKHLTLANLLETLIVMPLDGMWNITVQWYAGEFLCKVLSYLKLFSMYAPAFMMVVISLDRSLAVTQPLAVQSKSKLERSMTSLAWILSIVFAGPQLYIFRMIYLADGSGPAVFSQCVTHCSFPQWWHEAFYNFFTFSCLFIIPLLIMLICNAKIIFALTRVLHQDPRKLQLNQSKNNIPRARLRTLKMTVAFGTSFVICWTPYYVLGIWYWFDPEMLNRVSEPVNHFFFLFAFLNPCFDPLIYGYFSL
Procedure: Representative compounds of the present invention were evaluated in in vitro tests for LHRH rat pituitary receptor binding (pKI). The tests employed the methods detailed in F. Haviv, et al. J. Med. Chem., 32: 2340-2344 (1989). The receptor binding affinity (pKI) is the negative logarithms of the equilibrium dissociation constants.

Q: For `CCC1CCC(CC)N1[C@H]1C[C@@H](C)O[C@@H](O[C@@H]2[C@@H](C)[C@H](O[C@H]3C[C@@](C)(OC)[C@@H](O)[C@H](C)O3)[C@@H](C)C(=O)O[C@H](CC)[C@@]3(C)OC(=O)N(CCc4ccc(F)c(Cl)c4)[C@@H]3[C@@H](C)C(=O)[C@H](C)C[C@@]2(C)OC)[C@@H]1O` (mixture of isomers) [Example 10, 3′-Desamino-3′-N-(2,5-diethylpyrrolidinyl)-11-deoxy-11-[carboxy-(3-chloro-4-fluorophenethylamino)]-6-O-methyl-erythromycin A 11,12-(cyclic carbamate)], which Ki [1] is on record?
A: The Ki was 0.676 nM.

Q: With `CC[C@H]1OC(=O)[C@H](C)[C@@H](O[C@H]2C[C@@](C)(OC)[C@@H](O)[C@H](C)O2)[C@H](C)[C@@H](O[C@@H]2O[C@H](C)C[C@H](N3C(C)CCC3C)[C@H]2O)[C@](C)(OC)C[C@@H](C)C(=O)[C@H](C)[C@H]2N(CCc3ccc(Cl)c(Cl)c3)C(=O)O[C@]12C` (single isomer, unassigned) [Example 5, 3′-Desamino-3′S-N-(2,5-dimethylpyrrolidinyl)-11-deoxy-11-[carboxy-(3,4-dichlorophenethylamino)]-6-O-methyl-erythromycin A 11,12-(cyclic carbamate)] as the compound, how does the Ki [1] read?
A: The Ki was 1.23 nM.

Q: What about the melting point of the same compound?
A: The melting point was 258 to 260 °C.

Q: Which Ki [1] does the source give for `CC[C@H]1OC(=O)[C@H](C)[C@@H](O[C@H]2C[C@@](C)(OC)[C@@H](O)[C@H](C)O2)[C@H](C)[C@@H](O[C@@H]2O[C@H](C)C[C@H](N3C(C)CCC3C)[C@H]2O)[C@](C)(OC)C[C@@H](C)C(=O)[C@H](C)[C@H]2N(CCc3ccc(F)c(Cl)c3)C(=O)O[C@]12C` (single isomer, unassigned) [Example 6, 3′-Desamino-3′-N-(2,5-dimethylpyrrolidinyl)-11-deoxy-11-[carboxy-(3-chloro-4-fluorophenethylamino)]-6-O-methyl-erythromycin A 11,12-(cyclic carbamate)] here?
A: The Ki was 0.759 nM.

Q: What about the melting point of the same compound?
A: Its melting point is 276 to 278 °C.

Q: With `CC[C@H]1OC(=O)[C@H](C)[C@@H](O[C@H]2C[C@@](C)(OC)[C@@H](O)[C@H](C)O2)[C@H](C)[C@@H](O[C@@H]2O[C@H](C)C[C@H](N3C(C)CCCC3C)[C@H]2O)[C@](C)(OC)C[C@@H](C)C(=O)[C@H](C)[C@H]2N(CCc3ccc(Cl)c(Cl)c3)C(=O)O[C@]12C` (single isomer, unassigned) [Example 7, 3′-Desamino-3′-N-(2,6-dimethylpiperidinyl)-11-deoxy-11-[carboxy-(3,4-dichlorophenethylamino)]-6-O-methyl-erythromycin A 11,12-(cyclic carbamate)] as the compound, how does the Ki [1] read?
A: The Ki was 2.57 nM.

Q: With `CC[C@H]1OC(=O)[C@H](C)[C@@H](O[C@H]2C[C@@](C)(OC)[C@@H](O)[C@H](C)O2)[C@H](C)[C@@H](O[C@@H]2O[C@H](C)C[C@H](N3C(C)CCCC3C)[C@H]2O)[C@](C)(OC)C[C@@H](C)C(=O)[C@H](C)[C@H]2N(CCc3ccc(F)c(Cl)c3)C(=O)O[C@]12C` (single isomer, unassigned) [Example 8, 3′-Desamino-3′-N-(2,6-dimethylpiperidinyl)-11-deoxy-11-[carboxy-(3-chloro-4-fluorophenethylamino)]-6-O-methyl-erythromycin A 11,12-(cyclic carbamate)] as the compound, how does the Ki [1] read?
A: The Ki was 2.45 nM.

Q: For `CC[C@H]1OC(=O)[C@H](C)[C@@H](O[C@H]2C[C@@](C)(OC)[C@@H](O)[C@H](C)O2)[C@H](C)[C@@H](O[C@@H]2O[C@H](C)C[C@H](N3CCCC3)[C@H]2O)[C@](C)(OC)C[C@@H](C)C(=O)[C@H](C)[C@H]2N(CCc3ccc(Cl)c(Cl)c3)C(=O)O[C@]12C` [Example 1, 3′-Desamino-(3′S)-N-pyrrolidinyl-11-deoxy-11-[carboxy-(3,4-dichlorophenethylamino)]-6-O-methyl-erythromycin A 11,12-(cyclic carbamate)], which Ki [1] is on record?
A: Its Ki is 1.82 nM.

Q: With `CC[C@H]1OC(=O)[C@H](C)[C@@H](O[C@H]2C[C@@](C)(OC)[C@@H](O)[C@H](C)O2)[C@H](C)[C@@H](O[C@@H]2O[C@H](C)C[C@H](N3CCCCC3)[C@H]2O)[C@](C)(OC)C[C@@H](C)C(=O)[C@H](C)[C@H]2N(CCc3ccc(Cl)c(Cl)c3)C(=O)O[C@]12C` [Example 3, 3′-Desamino-3′-N-piperidinyl-11-deoxy-11-[carboxy-(3,4-dichlorophenethylamino)]-6-O-methyl-erythromycin A 11,12-(cyclic carbamate)] as the compound, how does the Ki [1] read?
A: The Ki was 3.55 nM.

Q: With `CC[C@H]1OC(=O)[C@H](C)[C@@H](O[C@H]2C[C@@](C)(OC)[C@@H](O)[C@H](C)O2)[C@H](C)[C@@H](O[C@@H]2O[C@H](C)C[C@H](N3CCCCC3)[C@H]2O)[C@](C)(OC)C[C@@H](C)C(=O)[C@H](C)[C@H]2N(CCc3ccc(F)c(Cl)c3)C(=O)O[C@]12C` [Example 4, 3′-Desamino-3′-N-piperidinyl-11-deoxy-11-[carboxy-(3-chloro-4-fluorophenethylamino)]-6-O-methyl-erythromycin A 11,12-(cyclic carbamate)] as the compound, how does the Ki [1] read?
A: The Ki was 5.62 nM.

Q: Which Ki [1] does the source give for `CCC1CCC(CC)N1[C@H]1C[C@@H](C)O[C@@H](O[C@@H]2[C@@H](C)[C@H](O[C@H]3C[C@@](C)(OC)[C@@H](O)[C@H](C)O3)[C@@H](C)C(=O)O[C@H](CC)[C@@]3(C)OC(=O)N(CCc4ccc(Cl)c(Cl)c4)[C@@H]3[C@@H](C)C(=O)[C@H](C)C[C@@]2(C)OC)[C@@H]1O` (stereo partly drawn) [Example 9, 3′-Desamino-3′-N-(2,5-diethylpyrrolidinyl)-11-deoxy-11-[carboxy-(3,4-dichlorophenethylamino)]-6-O-methyl-erythromycin A 11,12-(cyclic carbamate)] here?
A: The Ki was 1.74 nM.

Q: For `CC[C@H]1OC(=O)[C@H](C)[C@@H](O[C@H]2C[C@@](C)(OC)[C@@H](O)[C@H](C)O2)[C@H](C)[C@@H](O[C@@H]2O[C@H](C)C[C@H](N3C(C4CC4)CCCC3C3CC3)[C@H]2O)[C@](C)(OC)C[C@@H](C)C(=O)[C@H](C)[C@H]2N(CCc3ccc(F)c(Cl)c3)C(=O)O[C@]12C` (stereo partly drawn) [Example 11, 3′-Desamino-3′-N-(2,6-biscyclopropylpiperidinyl)-11-deoxy-11-[carboxy-(3-chloro-4-fluorophenethylamino)]-6-O-methyl-erythromycin A 11,12-(cyclic carbamate)], which Ki [1] is on record?
A: Its Ki is 1.17 nM.
